Activity calls are given as the source filed them. No cut-off for these calls is given here.
Legend:
[1] = test system: Human immunodeficiency virus 1; assay: Compound was tested for anti-HIV activity in cell culture assay; active anti HIV agent; assay type: functional, organism-based
[2] = test system: Human immunodeficiency virus 1; assay: Anti-HIV activity in cell culture assay expressed as EC50 values.; assay type: functional, organism-based
[3] = test system: Human immunodeficiency virus 1; assay: Inhibition against HIV replication in cell culture at 20 ug/mL; assay type: functional; conditions: for inhibition at 20 µg/mL: Human immunodeficiency virus 1
[4] = (§1) Therapeutic index was determined; conditions: Human immunodeficiency virus 1
[5] = test system: Human immunodeficiency virus 1; assay: Anti-HIV activity in cell culture assay expressed as IC50 values.; assay type: functional, organism-based
[6] = target: Human immunodeficiency virus type 1 reverse transcriptase (Human immunodeficiency virus 1) (UniProt Q72547); assay: Inhibition against HIV- reverse transcriptase in cell culture at 20 ug/mL
[7] = test system: Human immunodeficiency virus 1; assay: as §1; conditions: read-out: Therapeutic index
[8] = test system: Human immunodeficiency virus 1; assay: Compound was tested for anti-HIV activity in cell culture assay expressed as IC50 values; assay type: functional, organism-based

Row | inhibition [6] [%] | EC50 ([2]; Human immunodeficiency virus 1) [µM] | IC50 ([5]; Human immunodeficiency virus 1) [µM] | SMILES | Activity [1] | inhibition at 20 µg/mL [3] [%] | selectivity ratio [7] | further results
1 | 34 | 15 | 21 | O=C(O[C@@H]1O[C@H]2COC(=O)c3cc(O)c(O)c(O)c3-c3c(O)c(O)c(O)c(Oc4cc(C(=O)O[C@H]5O[C@H]6COC(=O)c7cc(O)c(O)c(O)c7-c7c(cc(O)c(O)c7O)C(=O)O[C@H]6[C@@H]6OC(=O)c7cc(O)c(O)c(O)c7-c7c(cc(O)c(O)c7O)C(=O)O[C@H]56)cc(O)c4O)c3C(=O)O[C@H]2[C@@H]2OC(=O)c3cc(O)c(O)c(O)c3-c3c(cc(O)c(O)c3O)C(=O)O[C@H]12)c1cc(O)c(O)c(O)c1 |  | 38 | 1.4 | 
2 | 27 | 35 | 15 | O=C1OCC2OC(=O)c3cc(O)c(O)c(O)c3-c3c(O)c(O)c(O)c4c3C(=O)OC(C2OC(=O)c2cc(O)c(O)c(O)c2-c2c1cc(O)c(O)c2O)C1OC(=O)c2c-4c(O)c(O)c(O)c2[C@@H]1[C@@]1(O)O[C@@H](CO)[C@@H](O)[C@H]1O (stereo not given in full) |  | 35 | 0.4 | 
3 | 13 | 21 | 40 | O=C1O[C@H]2[C@H](OC(=O)c3cc(O)c(O)c(O)c3)[C@@H](OC(=O)c3cc(O)c(O)c4c3[C@@H]3C1=CC(=O)C(O)(O)C3(O)O4)[C@H](OC(=O)c1cc(O)c(O)c(O)c1)O[C@@H]2COC(=O)c1cc(O)c(O)c(O)c1 (stereo not given in full) [TERCHEBIN] |  | 50 | 1.9 | 
4 | 16 | 50 | 19 | O=C(OC[C@H]1O[C@@H](OC(=O)c2cc(O)c(O)c(O)c2)[C@H](OC(=O)c2cc(O)c(O)c(O)c2)[C@@H](O)[C@@H]1O)c1cc(O)c(O)c(O)c1 |  | 20 | 0.4 | 
5 | 57 | 15 | 15 | O=C(O[C@@H]1O[C@@H]2COC(=O)c3cc(O)c(O)c(O)c3-c3c(cc(O)c(O)c3O)C(=O)O[C@H]([C@H]1O)[C@@H]2O)c1cc(O)c(O)c(O)c1 [CORILAGIN] |  | 90 | 1 | 

Continued, compound first:

Row | SMILES | inhibition [6] [%] | EC50 ([2]; Human immunodeficiency virus 1) [µM] | IC50 ([5]; Human immunodeficiency virus 1) [µM] | Activity [1] | inhibition at 20 µg/mL [3] [%] | selectivity ratio [7] | further results
6 | O=C(O[C@@H]1C[C@](OC(=O)c2cc(O)c(O)c(O)c2)(C(=O)O)C[C@@H](OC(=O)c2cc(O)c(O)c(O)c2)[C@H]1OC(=O)c1cc(O)c(O)c(O)c1)c1cc(O)c(O)c(O)c1 |  |  |  | Active |  |  | 
7 | O=C(OC[C@H]1O[C@@H](OC(=O)c2cc(O)c(O)c(O)c2)[C@H](OC(=O)c2cc(O)c(O)c(O)c2)[C@@H](OC(=O)c2cc(O)c(O)c(O)c2)[C@@H]1OC(=O)c1cc(O)c(O)c(O)c1)c1cc(O)c(O)c(O)c1 (stereo in doubt; 10) [PENTAGALLOYL GLUCOSE] |  |  |  |  |  |  | EC50 [2]: 15 µM; Inhibition [3]: 60%; Therapeutic index [4]: 1.3; IC50 [5]: 19 µM
8 | O=C(O[C@@H]1O[C@H](CO)[C@@H](O)[C@H](O)[C@H]1O)c1cc(O)c(O)c(O)c1 | 18 | 100 |  |  | 0 | 0.8 | IC50 [8]: 80 µM
9 | O=C(OC[C@H]1O[C@@H](OC(=O)c2cc(O)c(O)c(O)c2)[C@H](O)[C@@H](O)[C@@H]1O)c1cc(O)c(O)c(O)c1 | 14 | 50 |  |  | 40 | 0.8 | IC50 [8]: 38 µM
10 | O=C(Oc1c(O)cc(C(=O)O[C@H]2[C@H](OC(=O)c3cc(O)c(O)c(O)c3)C[C@](O)(C(=O)O)C[C@H]2OC(=O)c2cc(O)c(O)c(O)c2)cc1O)c1cc(O)c(O)c(O)c1 |  |  |  | active anti HIV agent |  |  | 
11 | O=C(Oc1c(O)cc(C(=O)O[C@@H]2C[C@](O)(C(=O)O)C[C@@H](OC(=O)c3cc(O)c(O)c(O)c3)[C@H]2OC(=O)c2cc(O)c(O)c(O)c2)cc1O)c1cc(O)c(O)c(O)c1 |  |  |  | active anti HIV agent |  |  | 
12 | O=C(Oc1c(O)cc(C(=O)O[C@@H]2C[C@@](O)(C(=O)O)C[C@@H](OC(=O)c3cc(O)c(O)c(O)c3)[C@@H]2OC(=O)c2cc(O)c(O)c(O)c2)cc1O)c1cc(O)c(O)c(O)c1 |  |  |  | active anti HIV agent |  |  | 
13 | O=C1OC(C2OC(=O)c3cc(O)c(O)c(O)c3-c3c(O)c(O)c4oc(=O)c5c(c(O)c(O)c6oc(=O)c3c4c65)-c3c(cc(O)c(O)c3O)C(=O)OCC2O)C2OC(=O)c3c(c(O)c(O)c(O)c3[C@H]2O)-c2c1cc(O)c(O)c2O (stereo not given in full) |  |  |  | active anti HIV agent |  |  | 
14 | O=C1OC[C@H]2O[C@@H](O)[C@H](O)[C@@H](O)[C@@H]2OC(=O)c2cc(O)c(O)c(O)c2-c2c(O)c(O)c3oc(=O)c4c(c(O)c(O)c5oc(=O)c2c3c54)-c2c1cc(O)c(O)c2O |  |  |  | active anti HIV agent |  |  | 
